The source of these data is patent publication US12338203B2 (TAISHO PHARMACEUTICAL CO., LTD., priority 2019, dated 2025).

Structures are written as SMILES.

For this assay, the target named is T1, human LPAR1 (Homo sapiens, UniProt Q92633).
T1 construct: expressed in transfected cells
T1 sequence (Q92633 whole entry): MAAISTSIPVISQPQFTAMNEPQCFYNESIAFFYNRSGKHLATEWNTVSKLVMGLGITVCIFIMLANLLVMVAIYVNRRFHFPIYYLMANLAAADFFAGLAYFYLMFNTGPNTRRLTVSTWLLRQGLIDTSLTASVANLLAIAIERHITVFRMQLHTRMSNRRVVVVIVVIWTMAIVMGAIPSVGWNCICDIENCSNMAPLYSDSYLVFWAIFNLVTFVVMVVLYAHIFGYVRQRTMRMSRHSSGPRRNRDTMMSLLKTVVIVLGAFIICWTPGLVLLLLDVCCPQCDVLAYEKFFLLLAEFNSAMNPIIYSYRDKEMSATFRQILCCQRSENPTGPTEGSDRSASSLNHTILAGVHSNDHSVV
As to the kind of experiment: Test Example 1: antagonism against response of LPA-induced increase in intracellular Ca2+ concentration in RH7777 cells stably expressing human LPAR1. The format is cell-based. The settings on record: RH7777 cells stably expressing human LPAR1; Fluo-4 fluorescence, FDSS6000; read-out: IC50 value (concentration producing 50% antagonism against response of LPA-induced increase in intracellular Ca2+ concentration) (converted). In outline: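 RH7777 cells stably transfected with human LPAR1 were preincubated with test compound 30 min at 37 °C in HBSS/20 mM HEPES/probenecid/0.05% BSA buffer, pH 7.4, then LPA-stimulated.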
Take `CCOc1c(C2CC2)ccc([C@@H](C)N(CCO[C@H](C)c2ccccc2)C(=O)NC2(C(=O)O)CC(F)(F)C2)c1C` [Example 4-172]: the IC50 was 2.43 nM.

With `CCCc1cc(OCC)cc(C(C)N(CCCCc2ccccc2)C(=O)NC2(C(=O)O)CC(F)(F)C2)c1` (centres unmarked) [Example 5-15], the IC50 is 6.1 nM.

With `CCOc1c(C(C)=O)ccc([C@@H](C)N(CCO[C@@H](C)c2ccccc2)C(=O)NC2(C(=O)O)CC(F)(F)C2)c1C` [Example 4-119], the IC50 was 3.13 nM.

On to `CCOc1cc([C@@H](C)N(CCCc2ccccc2F)C(=O)NC2(C(=O)O)CC(F)(F)C2)cc(OCC)c1C` [Example 4-4, 1-({[(1R)-1-(3,5-Diethoxy-4-Methylphenyl)Ethyl][3-(2-Fluorophenyl) Propyl]Carbamoyl}Amino)-3,3-Difluorocyclobutane-1-Carboxylic Acid], for which the IC50 was 9.64 nM.

For `CCOc1cc(C(C)N(CCO[C@@H](C)c2ccccc2)C(=O)NC2(C(=O)OC(C)(C)C)CC(F)(F)C2)c(Cl)c(OCC)c1C(C)=O` (some centres unmarked) [Example 6-17], the IC50 was 10200 nM.

On to `CCOc1cc(C(C)N(CCCCc2ccccc2)C(=O)NC2(C(=O)O)CC(OCC)C2)c(Cl)c(OCC)c1C(C)=O` (centres unmarked) [Example 5-209], for which the IC50 is 2.75 nM.

With `COc1cc(C(C)N(CCO[C@@H](C)c2ccccc2)C(=O)NC2(C(=O)O)CC(F)(F)C2)c(Cl)c(OC)c1C1CC1` (some centres unmarked) [Example 5-149], the IC50 is 2.58 nM.

In the case of `CCOc1cc([C@@H](C)N(CCO[C@@H](C)c2ccccc2)C(=O)NC2(C(=O)O)CC2)cc(OCC)c1C(C)=O` [Example 4-111], the IC50 is 3.07 nM.

Regarding `CCOc1cc([C@@H](C)N(CCCCc2ccccc2)C(=O)NC2CCC(C(=O)O)C2)cc(OCC)c1C(C)=O` (some centres unmarked) [Example 1-140], the IC50 is 65.9 nM.

Turning to `CCOc1cc([C@@H](C)N(CC2CC(c3ccccc3)C2)C(=O)NC2(C(=O)O)CC(F)(F)C2)cc(OCC)c1C` (some centres unmarked) [Example 4-42], the IC50 is 25.2 nM.

As to `CCOc1cc([C@@H](C)N(CCC(F)(F)Cc2ccccc2)C(=O)N[C@]2(C(=O)O)C[C@@H](OCC)C2)c(C)c(OCC)c1C` [Example 5-80], the IC50 is 43.5 nM.

As to `CC(c1cc(C(F)(F)F)cc(C(F)(F)F)c1)N(CCCCc1ccccc1)C(=O)NC1(C(=O)O)CC(F)(F)C1` (centres unmarked) [Example 5-24], the IC50 was 75.8 nM.

In the case of `CCOc1cc([C@@H](C)N(CCO[C@@H](C)c2ccccc2)C(=O)N[C@]2(C(=O)O)C[C@@H](OC)C2)c(Cl)c(OCC)c1C(C)=O` [Example 5-28], the IC50 is 2.31 nM.

As to `COc1cc(C(C)N(CCO[C@@H](C)c2ccccc2)C(=O)NC2(C(=O)O)CC(F)(F)C2)c(C)c(OC)c1C1CC1` (some centres unmarked) [Example 5-150], the IC50 is 3.37 nM.

As for `CCOc1cc([C@@H](C)N(CCCCc2ccccc2)C(=O)NC2(C(=O)O)CC(F)(F)C2)cc(OCC)c1C(C)=O` [Example 1-30, 1-({[(1R)-1-(4-Acetyl-3,5-Diethoxyphenyl)Ethyl](4-Phenylbutyl) Carbamoyl}Amino)-3,3-Difluorocyclobutane-1-Carboxylic Acid], the IC50 was 1.75 nM.

Consider `CCOc1cc([C@@H](C)N(CCCC(F)(F)c2ccccc2)C(=O)N[C@]2(C(=O)O)C[C@@H](OCC)C2)cc(OCC)c1C(C)=O` [Example 4-69], for which the IC50 was 4.9 nM.

Turning to `CCOc1c(C(C)=O)ccc([C@@H](C)N(CCO[C@@H](C)c2ccccc2)C(=O)N[C@]2(C(=O)O)C[C@@H](OCC)C2)c1C` [Example 4-140], the IC50 is 5.67 nM.

As for `CCOc1cc(C(C)N(CCOCc2ccccc2)C(=O)N[C@]2(C(=O)O)C[C@@H](OCC)C2)c(C)c(OCC)c1C(C)=O` (some centres unmarked) [Example 5-214], the IC50 was 1.92 nM.

For `COc1cc(C(C)N(CCOCc2ccccc2)C(=O)NC2(C(=O)O)CCC2)c(C)c(OC)c1C1CC1` (centres unmarked) [Example 5-135], the IC50 is 1.88 nM.

For `CCOc1cc(C(CO)N(CCCCc2ccccc2)C(=O)NC2(C(=O)O)CC(F)(F)C2)cc(OCC)c1C(C)=O` (centres unmarked) [Example 3-4, 1-({[1-(4-Acetyl-3,5-Diethoxyphenyl)-2-Hydroxyethyl](4-Phenylbutyl) Carbamoyl}Amino)-3,3-Difluorocyclobutane-1-Carboxylic Acid], the IC50 was 4.03 nM.
